# Literature values, collected in patent US6455557B1 (Elan Pharmaceuticals, Inc., priority 2001, dated 2002).
# Read-outs that look alike come from different tables or passages of the source.
# Tests used:
# [1] = not given; remark: listed apart in the source
# [2] = not given; remark: listed apart in the source
# [3] = system: plasma proteins; conditions: independent of concentration over the therapeutic range
# [4] = oral administration, tablet formulation
structure (smiles),measurement,setting,value
Clc1cccc(Cl)c1N=C1NCCN1 [clonidine],Efficacy in treating spastic conditions,"human, in vivo",ineffective
"Clc1ccc2nsnc2c1NC1=NCCN1 [tizanidine, 5-chloro-4-(2-imidazolin-2-ylamino)-2,1,3-benzothiadiazole]","Muscle strength, as assessed by objective means",patients,not to be adversely affected
same,Spasm frequency and clonus,patients,reduced
same,Subjective muscle weakness compared with baclofen or diazepam recipients,patients,reported less often
same,Time of maximum anti-spastic effects after administration,some studies,≤ 2 h
same,Fraction of an administered dose metabolized,[1]; in vivo,approximately 95%
same,Mean steady state volume of distribution,"[1]; intravenous administration, healthy adult volunteers",2.4 L/kg
same,Absolute oral bioavailability,[1]; oral,approximately 40%
same,Half-life,[1]; [4],approximately 2.5 hours
same,Time of peak plasma concentrations after dosing,[1]; [4],1.5 h
same,Dose linearity of pharmacokinetics,[1]; over a dose of 1 to 20 mg,linear pharmacokinetics
same,Extent of tizanidine absorption with food,"[1]; tablet formulation, with food",not affected
same,Increase of Cmax by food,"[1]; tablet formulation, with food",approximately one-third
same,Shortening of time to peak concentration by food,"[1]; tablet formulation, with food",approximately 40 minutes
same,Sedation cases rated as severe,"[2]; multiple dose, controlled clinical studies",10%
same,Patients reporting sedation as an adverse event,"[2]; multiple dose, controlled clinical studies, any dose",48%
same,Patients continuing to report drowsiness 6 hours following dosing,[2]; single dose of 8 mg,13%
same,Patients continuing to report drowsiness 6 hours following dosing,[2]; single dose of 16 mg,51%
same,Onset of drowsiness following dosing,[2]; single dose study,30 min
same,Peak of drowsiness following dosing,[2]; single dose study,1.5 h
same,Patients reporting that they were drowsy during the 6 hour study,"[2]; single dose study, 8 mg",76%
same,Patients reporting that they were drowsy during the 6 hour study,"[2]; single dose study, 16 mg",92%
same,Bound to plasma proteins,[3],approximately 30%
